Data set [1] concerns the target T1, N-formyl peptide receptor 2 (Homo sapiens, UniProt P25090).
T1 sequence (P25090 whole entry): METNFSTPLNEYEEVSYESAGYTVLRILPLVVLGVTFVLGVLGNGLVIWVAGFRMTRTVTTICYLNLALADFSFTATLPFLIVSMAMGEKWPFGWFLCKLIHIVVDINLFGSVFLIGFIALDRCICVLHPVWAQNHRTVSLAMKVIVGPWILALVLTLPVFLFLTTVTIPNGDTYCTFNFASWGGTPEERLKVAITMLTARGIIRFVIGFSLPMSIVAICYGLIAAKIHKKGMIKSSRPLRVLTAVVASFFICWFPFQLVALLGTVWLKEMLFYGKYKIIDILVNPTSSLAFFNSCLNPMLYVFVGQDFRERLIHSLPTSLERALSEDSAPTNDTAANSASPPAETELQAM
Put plainly: Agonist activity at human FPR2 overexpressing CHO cells assessed as reduction in intracellular cAMP level incubated for 30 mins by HTRF assay. It counts as functional, cell-based. For orientation: Changes in cAMP serve as a functional read-out for many G protein-coupled receptors.

Data set [2] is described as follows: AUC (0 to infinity) in C57BL6 mouse at 3 mg/kg, po and measured upto 24 hrs by LC-MS/MS analysis. Format: ADME, organism-based. More on the design: dose 3 mg/kg, time < 24 hrs, route po. The conditions noted are these: in vivo.
For data set [3], the system named is Peritoneal macrophage. Put plainly: Induction of phagocytosis in mouse peritoneal macrophages assessed as increase in FITC signal preincubated with compound for 15 mins followed by zymosan addition and measured after 1 hr by Trypan Blue based FITC analysis.
Data set [4] is described as follows: Protein binding in human assessed as free fraction. Format: ADME.
Data set [5] in a line: Permeability of the compound at pH 5.5 by PAMPA assay. Format: ADME. The conditions noted are these: read-out: permeability.

Usually EC50 stands for the concentration needed to bring the measured effect to its halfway point. The term AUC(0-inf) denotes the area under the concentration-time curve extrapolated to infinity. High values mean high exposure, low ones low exposure. What is called fraction unbound is the share of the substance not bound to proteins or other matrix.

Regarding `COc1cc(F)c([C@@H]2CNC(=O)[C@H]2c2nc3cc(Cl)cnc3[nH]2)c(F)c1`, the EC50 in data set [1] was found to be 40 nM.
`COc1cc(F)c([C@@H]2CNC(=O)[C@H]2Nc2cc(-c3ccc(Cl)cc3)n(C)n2)c(F)c1`: the EC50 in data set [1] is > 10000 nM.
Consider `COc1cc(F)c([C@@H]2CNC(=O)[C@H]2Nc2nnc(-c3ccc(Cl)cc3)s2)c(F)c1`, for which the EC50 in data set [1] turned out to be 37 nM.
On to `COc1cc(F)c([C@@H]2CNC(=O)[C@H]2Nc2nc(-c3ccc(Cl)cc3)no2)c(F)c1`, for which the EC50 in data set [1] came out at 3500 nM.
As to `COc1ccc([C@@H]2CNC(=O)[C@H]2Nc2nnc(-c3ccc(Cl)cc3)o2)c(F)c1`, the concentration giving a half-maximal response (EC50) in data set [1] came out at 40 nM.
Consider `COc1ccc([C@@H]2CNC(=O)[C@H]2Nc2nnc(-c3ccc(Cl)cc3)o2)cc1`, for which the EC50 in data set [1] turned out to be 160 nM.
Consider `COc1cc(F)c([C@@H]2CNC(=O)[C@H]2Nc2nnc(-c3cccc(Cl)c3)o2)c(F)c1`, for which, in data set [1], the EC50 was > 10000 nM.
For the compound `COc1cc(F)c([C@@H]2CNC(=O)[C@H]2Nc2cc(-c3ccc(Cl)cc3)[nH]n2)c(F)c1`, in data set [1], the EC50 is > 10000 nM.
Take `COc1cc(F)c([C@@H]2CNC(=O)[C@H]2NC(=O)Nc2ccccc2)c(F)c1` [BMS-986235]: the AUC(0-inf) in data set [2] amounted to 5.6 µM·h. The EC50 in data set [3] was < 1 nM. Also, the fraction unbound in data set [4] is 0.127. Besides, in data set [5], the Papp stood at 44 ×10⁻⁶ cm/s.
In turn, `COc1cc(F)c([C@@H]2CNC(=O)[C@H]2Nc2cc(-c3ccc(Cl)cc3)on2)c(F)c1` displayed an AUC(0-inf) in data set [2] of 15 µM·h. Also, the fraction unbound in data set [4] turned out to be 0.005. The Papp in data set [5] amounted to 110 ×10⁻⁶ cm/s.
As to `COc1cc(F)c([C@@H]2CNC(=O)[C@H]2c2nc3cc(OC)ccc3[nH]2)c(F)c1`, the EC50 in data set [1] was > 5000 nM.
Still for that read-out and setting: in the case of `COc1cc(F)c([C@@H]2CNC(=O)[C@H]2Nc2nnc(-c3ccccc3)o2)c(F)c1` it was 250 nM; in that of `COc1cc(F)c([C@@H]2CNC(=O)[C@H]2c2nc3cc(Cl)ccc3[nH]2)c(F)c1`, 110 nM; in that of `COc1cc(F)c([C@@H]2CNC(=O)[C@H]2c2nc3ccccc3[nH]2)c(F)c1`, 680 nM.
Compound `COc1cc(F)c([C@@H]2CNC(=O)[C@H]2Nc2nnc(-c3ccc(Cl)cc3)o2)c(F)c1` came in with an AUC(0-inf) in data set [2] of 8.4 µM·h. The EC50 in data set [1] is 32 nM. Further, in data set [4], the fraction unbound came out at 0.015. In data set [5], the Papp came out at 97 ×10⁻⁶ cm/s.
For the compound `COc1ccc(-c2nnc(N[C@@H]3C(=O)NC[C@H]3c3c(F)cc(OC)cc3F)o2)cc1`, the EC50 in data set [1] was 3700 nM.
Turning to `COc1cc(F)c([C@@H]2CNC(=O)[C@H]2Nc2nnc(-c3ccc(OC(F)(F)F)cc3)o2)c(F)c1`, the EC50 in data set [1] is 53 nM.
As for `COc1cc(F)c([C@@H]2CNC(=O)[C@H]2Nc2nc3ccccc3[nH]2)c(F)c1`, the EC50 in data set [1] turned out to be 1300 nM.
Turning to `COc1cc(F)c([C@@H]2CNC(=O)[C@H]2c2nc3c(Cl)cccc3[nH]2)c(F)c1`, the EC50 in data set [1] was > 10000 nM.
For the compound `COc1cc(F)c([C@@H]2CNC(=O)[C@H]2c2nc3nc(Cl)ccc3[nH]2)c(F)c1`, the EC50 in data set [1] was 2300 nM.
Take `COc1cc(F)c([C@@H]2CNC(=O)[C@H]2Nc2noc(-c3ccc(Cl)cc3)n2)c(F)c1`: the EC50 in data set [1] was found to be 2500 nM.
For the compound `COc1cc(F)c([C@@H]2CNC(=O)[C@H]2Nc2ncc(-c3ccc(Cl)cc3)o2)c(F)c1`, the EC50 in data set [1] was 250 nM.
With `COc1cc(F)c([C@@H]2CNC(=O)[C@H]2Nc2nnc(-c3ccccc3Cl)o2)c(F)c1`, in data set [1], the EC50 is > 10000 nM.
For `COc1cc(F)c([C@@H]2CNC(=O)[C@H]2Nc2nnc(-c3ccc(Cl)cc3F)o2)c(F)c1`, the EC50 in data set [1] came to 840 nM.
In the case of `COc1cc(F)c([C@@H]2CNC(=O)[C@H]2Nc2cc(-c3ccc(Cl)cc3)no2)c(F)c1`, the EC50 in data set [1] came out at 2200 nM.
